Data published in PubChem BioAssay AID179 (DTP/NCI, 2004).
Several values for one entry are separate records, joined by “and”; a condition that tells them apart may be missing. Equal values may be shown once. Activity calls are given as the source filed them.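 Rule for the calls: active = compounds giving half or more protection of infected cells from virus-caused growth loss, again on retest; inactive = the rest.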

Tested on: CEM cells HIV-1 protection, formazan growth assay
Assay: NCI AIDS Antiviral Assay
Conditions: for IC50: measured here: growth of uninfected CEM cells
Outline: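 Human CEM cells, uninfected and HIV-1-infected, received five drug concentrations, and growth was read by soluble formazan assay. Compounds giving at least 50% protection were retested; reproducible 100% protection defined confirmed active.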

Row | Compound | outcome | EC50 [µM] | IC50
1 | COc1cc2ccnc(-c3n[nH]c4cc(OC)c(OC)cc34)c2cc1OC | inactive |  | 
2 | COc1ccc(/C=C2\SC(=S)NC2=O)cc1 |  | > 28.8 | > 28.8 µM
3 | Clc1ccc(C(OCn2ccnc2)c2nc3ccccc3[nH]2)c(Cl)c1 (stereo not drawn) |  | > 200 | 107 µM
4 | COc1cccc2c1C(=O)c1c(O)c3c(c(O)c1C2=O)C[C@@](O)(/C(C)=N\O)C[C@@H]3OC1CC(N)C(O)C(C)O1 (stereo partly drawn) |  | > 0.2 | 0.0646 µM
5 | COc1ccc(-c2sc(/N=C/c3ccc(-c4ccccc4)cc3)c(C#N)c2C)cc1OC |  | > 200 | 30.2 µM
6 | CC(=O)NS(=O)(=O)c1ccc(NC(=O)c2ccccc2SC(=O)c2ccccc2)cc1 |  | 15.1 | 117 µM
7 | Cc1ccc(S(=O)(=O)c2c3[nH]c4ccccc4nc3n3c2nc2ccccc23)cc1 |  | > 120 | > 120 µM
8 | CCOc1ccccc1N1CSc2nnc(-c3ccccc3)n2C1 |  | > 148 | 83.2 µM
9 | CC(/C=N/N(C)C1=NCCCCN1)=N/N(C)C1=NCCCCN1 |  | > 200 | > 200 µM
10 | COc1ccc2c(c1)CC1c3c(ccc(OC)c3O)CC2N1C (stereo not drawn) |  | > 43.7 | 20.4 µM
11 | CC1=NN(c2ccccc2)C(=O)C1N=Nc1ccc(S(=O)(=O)Nc2ncccn2)cc1 (stereo not drawn) |  | > 200 | 36.3 µM
12 | C(/Cc1ccc2c(c1)OCO2)=N\NC1=NCCN1 |  | > 200 | 117 µM
13 | C=C(C)OCOCCOC |  | > 200 | > 200 µM
14 | CC(=O)Nc1ccc(C2C(C(=O)Nc3ccccc3C)=C(C)NC(C)=C2C(=O)Nc2ccccc2C)cc1 |  | > 70.8 | > 70.8 µM
15 | OC1[C@H]([C@H]2CCCC[C@@H]2O)CCC[C@@H]1[C@@H]1CCCC[C@H]1O (stereo partly drawn) |  | > 170 | > 170 µM
16 | CCCCc1ccc(-n2sc3ncc([N+](=O)[O-])cc3c2=O)cc1 |  | > 17 | 10 µM
17 | COc1ccc2nc3cc([N+](=O)[O-])ccc3c(Nc3ccc(S(=O)(=O)Nc4ncccn4)cc3)c2c1 |  | > 200 | 102 µM
18 | Nc1nccc(NCC2(CO)CC(OCc3ccccc3)C2)n1 (stereo not drawn) |  | > 200 | > 200 µM
19 | O=C(O)CNS(=O)(=O)c1ccc(NC(=O)c2ccccc2[N+](=O)[O-])cc1 | inactive |  | 
20 | Cc1nonc1C(=O)NN |  | > 631 | > 631 µM
21 | COC(=O)C1=C(C(=O)OC)C(Cc2ccccc2)(OO)OC1=O (stereo not drawn) |  | > 200 | 0.955 µM
22 | O=[N+]([O-])c1ccc(N2N=C(c3ccc4ccccc4c3O)CC2c2ccc(Cl)cc2)c([N+](=O)[O-])c1 (stereo not drawn) |  | > 200 | 43.7 µM

Row | Compound | outcome | EC50 [µM] | IC50
23 | CC(=O)Oc1cccc2c1C(=O)C(Br)(Br)CCC2 | inactive |  | 
24 | CCOC(=O)c1cnc2n(c1=O)[C@H]1CCCC[C@@H]1N2 |  | > 200 | > 200 µM
25 | CC(CO)NNC(C)CO (stereo not drawn) |  | > 200 | > 200 µM
26 | CC1CC(Nc2ccc(NC3=CC(=O)OC(C)C3)cc2)=CC(=O)O1 (stereo not drawn) |  | > 200 | > 200 µM
27 | COc1cc2c(cc1OC)C1OC(c3cc(OC)c(OC)cc3C1OC(C)=O)C2OC(C)=O (stereo not drawn) |  | > 50.1 | > 50.1 µM
28 | COCC1=C(NNC(=O)c2ccncc2)[C@@]2(C)C(=CC1=O)Oc1c(C(C)=O)c(O)c(C)c(O)c12 |  | > 200 | 47.9 µM
29 | O=C(O)C1CC(O)CN1S(=O)(=O)Cc1ccccc1 (stereo not drawn) |  | > 200 | > 200 µM
30 | NCCCCN(CCCN)/[N+]([O-])=N\O |  | > 7590 | 91.2 µM
31 | O=S1CC(c2ccccc2)=C(c2ccccc2)CS1 (stereo not drawn) |  | > 200 | 47.9 µM
32 | CC(=O)[C@H]1[C@@H](OCc2ccccc2)O[N+]([O-])=C(C)[C@@H]1c1ccccc1 |  | > 123 | 89.1 µM
33 | COc1ccc(C2Oc3c(cccc3OC)C=C2[N+](=O)[O-])cc1OC (stereo not drawn) |  | > 200 | 1.2 µM
34 | CSC1=C(C#N)C(=O)N(c2ccc(C)cc2)C(=O)C1C#N (stereo not drawn) |  | > 200 | 151 µM
35 | O=C(NCCc1c[nH]c2ccccc12)C(F)(F)F |  | > 200 | > 200 µM
36 | c1ccc(N2N=NC3C4CC(C32)C2C4N=NN2c2ccccc2)cc1 (stereo not drawn) |  | > 200 | > 200 µM
37 | Cc1cn(C2OC(COC(=O)c3ccccc3)C(OC(=O)c3ccccc3)C2I)c(=O)[nH]c1=O (stereo not drawn) |  | > 200 | 37.2 µM
38 | NC(=Nc1nc(-c2ccccn2)cc2ccccc12)c1ccccn1 |  | > 22.4 | 0.0851 µM
39 | O=C(CC1=NC2NN(c3ccccc3)C(=O)C2=C1CC(=O)c1cccc([N+](=O)[O-])c1)c1cccc([N+](=O)[O-])c1 (stereo not drawn) |  | > 129 | > 129 µM
40 | Clc1ccc2c(c1)[nH]c1c2nc2ccccn21 |  | > 30.2 | 29.5 µM and > 25.7 µM
41 | O=C(SC1=NCCN1)c1cccc2ccccc12 |  | > 200 | 28.8 µM
42 | COc1ccc2c(=O)c([Se]c3coc4cc(OC)ccc4c3=O)coc2c1 |  | > 60.3 | > 60.3 µM
43 | C[N+]1([O-])[C@H]2CC(OC(=O)[C@H](CO)c3ccccc3)C[C@H]1[C@H]1O[C@H]12 (stereo partly drawn) |  | > 200 | > 200 µM
44 | O=C(O)C1(C(=O)O)CC1 | inactive |  | 

Row | Compound | outcome | EC50 [µM] | IC50
45 | FC(F)(Oc1ccccc1)c1nc2ccccc2o1 |  | > 200 | 64.6 µM
46 | CC(=O)/C(=C/c1cccc(C#N)c1)C(=O)c1ccccc1 |  | > 36.3 | 17.4 µM
47 | Cn1c(=O)c2nc3n(c2n(C)c1=O)C(=O)C(C(=O)O)N=N3 (stereo not drawn) |  | > 200 | > 200 µM
48 | CC(=O)O[C@]1(C(C)=O)CC[C@H]2[C@@H]3C=C(Cl)C4=CC(=O)[C@@H]5C[C@@H]5[C@]4(C)[C@H]3CC[C@@]21C |  | > 200 | > 200 µM
49 | CCN1CCC(O)(c2ccccc2)C(C(=O)c2ccccc2)C1 (stereo not drawn) |  | > 646 | 33.9 µM
50 | O=C(Cn1ccnc1[N+](=O)[O-])NCCO | inactive |  | 
51 | CC(=O)OCC12C(OC(C)=O)C[C@@H](C)C3(CC(c4ccoc4)OC3=O)C1CCC(OC(C)=O)C21CO1 (stereo partly drawn) |  | > 200 | > 200 µM
52 | CC(C)=CCc1c(O)ccc2c1OC1c3ccc(O)c(CC=C(C)C)c3OCC21 (stereo not drawn) | inactive |  | 
53 | CCCCc1ccc(Nc2nc3c(ncn3C3OC(COC(C)=O)C(OC(C)=O)C3OC(C)=O)c(=O)[nH]2)cc1 (stereo not drawn) |  | > 200 | 11.7 µM
54 | COc1ccc(S(=O)(=O)c2nnc(S(=O)(=O)Cc3ccccc3)s2)cc1 |  | > 200 | 3.63 µM
55 | CCC1C(C(=O)Nc2ccccc2C)=C(C)NC(C)=C1c1ccccc1C (stereo not drawn) |  | > 186 | > 186 µM
56 | C(=N\Nc1ccc2ccccc2n1)/c1ccccn1.CC(=O)[O-].CC(=O)[O-].[Zn+2] |  | > 200 | 1.05 µM
57 | COc1cccc(C2NC(=O)N3C(c4cccc(OC)c4)NC(=O)N23)c1 (stereo not drawn) |  | > 200 | 89.1 µM
58 | COc1cc(OC)cc(-n2c(N)c(-c3nc4ccccc4s3)c3ccc([N+](=O)[O-])cc3c2=O)c1 |  | > 200 | 148 µM
59 | O=C1c2ccccc2C(=O)c2c(/C=C\N3CCCCC3)ccnc21 |  | > 8.51 | > 8.51 µM
60 | Cc1cc(N=Nc2ccc(-c3ccc(N=Nc4ccc(O)c(C(=O)O)c4)cc3)cc2)c(C)cc1N |  | > 100 | 41.7 µM
61 | CC(NO)/C(=N/O)c1ccco1 (stereo not drawn) |  | > 200 | > 200 µM
62 | COc1ccc(Sc2ccccc2N)cc1 | inactive |  | 
63 | O=C(CSc1nnc(-c2ccc(N=Cc3ccc(Cl)cc3)cc2)o1)Nc1ccc(Cl)cc1Cl |  | > 34.7 | 25.1 µM
64 | CC1=NN(c2cccc(S(=O)(=O)O)c2)C(=O)C1N=Nc1cc(Cl)cc(S(=O)(=O)O)c1O.O.[Cr] (stereo not drawn) |  | 89.1 | > 100 µM
65 | Cc1ccc(NC(=O)CC2C(=O)Nc3ccccc3S2=O)c(C)c1 (stereo not drawn) |  | > 15.1 | > 15.1 µM
66 | Cn1c(=O)n(C2(C)CSC2)c2ccccc21 |  | > 562 | 178 µM

Row | Compound | outcome | EC50 [µM] | IC50
67 | CCCCCCCCCCCC(=O)OCC(C[As](=O)(O)O)OC(=O)CCCCCCCCCCC (stereo not drawn) |  | > 200 | 1.82 µM
68 | CS(=O)CC(=O)c1ccccn1 (stereo not drawn) |  | > 200 | > 200 µM
69 | COC(=O)[C@]12CSCN1C(=O)C(C(C)=O)=NN2C(=O)[C@](OC)(c1ccccc1)C(F)(F)F |  | > 200 | > 200 µM
70 | Cc1nn2c(=O)c([N+](=O)[O-])c(/C=C/c3ccccc3)nc2s1 |  | > 200 | 3.31 µM
71 | O=C(NCCCCCCNC(=O)n1cc(F)c(=O)[nH]c1=O)NC1C(O)OC(CO)C(O)C1O (stereo not drawn) | inactive |  | 
72 | CC(=O)OC1(C#N)CC2OC1C1C2N1C(=O)c1ccccc1 (stereo not drawn) |  | > 316 | > 316 µM
73 | CCC12C=CCN3CC[C@@]4(c5ccc(OC)cc5N(C)[C@H]4[C@@](O)(C(=O)OC)[C@@H]1OC(C)=O)C32 (stereo partly drawn) | inactive |  | 
74 | CCCCCCCCOC1C(O)C(O)C(O)C(O)C12CO2 (stereo not drawn) |  | > 200 | 75.9 µM
75 | C=CCNC(=O)N(CCCCC(NC(C)=O)C(=O)NCc1ccccc1)Cc1ccccc1 (stereo not drawn) |  | > 550 | 372 µM
76 | COc1cc2c3c(c1)SC(C)C(=O)N3CCN2 (stereo not drawn) |  | > 200 | 105 µM
77 | N#CC1CC(c2cccs2)Nc2ccccc2N1 (stereo not drawn) |  | > 141 | 46.8 µM
78 | CCCCCCOC(=O)c1ccc(NC(=O)CN(CC)CC)cc1 |  | > 200 | 37.2 µM
79 | COc1ccc(NC(=S)NNC(=O)c2cc(-c3ccccc3)nc3ccccc23)cc1 |  | > 200 | 35.5 µM
80 | Cc1cc(C)nc(NS(=O)(=O)c2ccc(NC(=O)c3cccc4c(=O)c5ccccc5[nH]c34)cc2)n1 | inactive |  | 
81 | CC(C)(C)OC(=O)N1N=NC2C3OC(CC3=O)C21 (stereo not drawn) |  | > 708 | 355 µM
82 | Cn1cccc1/C=C/c1cc(Br)c(/C=C/c2cccn2C)cc1Br | inactive |  | 
83 | COc1ccc(C(=O)C(c2ccc(OC)cc2)C2(O)C(=O)Nc3c(C)cc(Cl)cc32)cc1 (stereo not drawn) |  | > 79.4 | > 79.4 µM
84 | CN(Cc1c2ccccc2cc2ccccc12)S(=O)(=O)c1ccc(-c2c3nc(c(-c4ccc(S(=O)(=O)N(C)Cc5c6ccccc6cc6ccccc56)cc4)c4ccc([nH]4)c(-c4ccc(S(=O)(=O)N(C)Cc5c6ccccc6cc6ccccc56)cc4)c4nc(c(-c5ccc(S(=O)(=O)N(C)Cc6c7ccccc7cc7ccccc67)cc5)c5ccc2[nH]5)C=C4)C=C3)cc1 |  | > 100 | > 100 µM
85 | CCOP(=O)(OCC)/C(C#N)=C/c1ccccc1Cl | inactive |  | 
